The values that follow come from patent US20240043439A1, “COMPOUNDS AS C5AR INHIBITORS” (Kira Pharmaceuticals (Suzhou) Ltd., priority 2020, published 2024).

As a reminder, the IC50 is the midpoint of a concentration-inhibition curve.

Assay [1] addresses human C5a receptor (C5aR) (Homo sapiens (Human), UniProt P21730). Description: Inhibition of C5a-C5aR binding (biotinylated human C5a, U937/C5aR cells, FACS). As to the method:
U937 cells were originally obtained from the American Type Culture Collection (ATCC) and transfected with human C5a receptor (C5aR). U937/C5aR cells were cultured at 37° C., 5% CO2 in RPMI1640 (Gibco) supplemented with 10% FBS (Gibco) and 350 µg/ml Geneticin (Gibco) and passaged every 3 days to maintain the density range from […] to 2×10^6 cells/ml.
Human C5a biotinylation was performed according to the procedure provided by manufacturer (Thermo Scientific, A39257). 10 mM solution of Sulfo-NHS-LC-Biotin was prepared by adding 180μl ultrapure H2O to the 1 mg vial immediately. 12 μl 10 mM biotin reagent was added to […] human C5a solution, gently pipetted for 3 seconds, and incubated on ice for 2 hours. Amicon ultra-0.5 centrifuge filter device (Millipore, UFC5003BK) was pre-rinsed with Milli-Q H2O, centrifuged at 14000 g for 5 min immediately before use. Up to […] sample (diluted by PBS) was added to the device and capped. The device was spinned at 14000 g for approximately 5 min. 250 μl PBS was added to the filter device, spinned at 14000 g for 5 min, and repeatedly washed 6 times. The filter device was separated from the microcentrifuge tube and placed upside down in a clean microcentrifuge tube, spinned for 2 min at 1000 g to transfer the concentrated sample from the device to the tube.
U937/C5aR cells were collected and washed twice by PBS, cells were suspended in PBS+0.1% BSA buffer at the density of 3×10^6 cells/ml. 100 μl cell suspension was added to a 96 well microplate. 50 μl compound diluted in assay buffer and 50 μl biotinylated ligand human C5a (30 nM) were added to corresponding wells in order and the plate was incubated on ice for 120 min and then centrifuged at 1000 rpm for 3-5 min at 4° C. Supernatant was removed and cells were washed by pre-cold PBS twice. 100 μl FITC conjugated streptavidin was added to cells, incubated on ice for another 30 min, and then centrifuged at 1000 rpm for 3-5 min at 4° C. Supernatant was removed and cells were washed by pre-cold PBS twice. 150 μl PBS was added to suspend the cells and signals were detected by FACS (Beckman, Cytoflex).

For another assay, the target named is C5aR (Homo sapiens (Human), UniProt P21730). Description: Calcium mobilization (U937/C5aR or HEK293/C5aR cells, FLIPR). It counts as cell-based. As to conditions: agonist human C5a at EC80, FLIPR. As for the experimental part:
U937/C5aR cells or HEK293/C5aR cells were washed by PBS and suspended in growth media at the density of 1×10^6 cells/ml. […] to the 384-well plate and culture for overnight. Transfer 250 nl compound solution to the cell plate using Echo, incubate for 60 min. Cells were added with Fluo-4 Direct™ dye and incubate for 50 min at 37° C. 5% CO2 and 10 m at room temperature. Place the cell plate into […] (Molecular Devices). Transfer 10 μl of 5-fold EC80 concentrations of agonist human C5a to the cell plates.
In general terms: A change in cytosolic calcium serves as a functional read-out for many receptors and channels.

Chain of C5aR (P21730 whole entry): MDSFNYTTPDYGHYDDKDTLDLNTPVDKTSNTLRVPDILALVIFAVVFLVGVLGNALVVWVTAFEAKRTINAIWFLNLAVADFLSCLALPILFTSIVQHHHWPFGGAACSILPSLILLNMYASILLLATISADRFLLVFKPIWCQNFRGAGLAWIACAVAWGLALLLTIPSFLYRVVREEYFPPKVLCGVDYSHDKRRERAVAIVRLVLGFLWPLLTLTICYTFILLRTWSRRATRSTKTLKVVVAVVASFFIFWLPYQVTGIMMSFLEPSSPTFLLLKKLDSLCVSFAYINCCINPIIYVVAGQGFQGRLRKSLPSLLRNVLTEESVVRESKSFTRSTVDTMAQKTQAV
Chain of human C5a receptor (C5aR) (P21730 whole entry): as above

As to `Cc1cccc(F)c1C(=O)N1C2CCC[C@@H]2C[C@H](C(=O)Nc2cccc(F)c2)[C@@H]1c1ccc(NC2CCCC2)cc1` (mixture of isomers) [Compound 56, cis-2-(4-(cyclopentylamino)phenyl)-1-(2-fluoro-6-methylbenzoyl)-N-(3-fluorophenyl)octahydro-1H-cyclopenta[b]pyridine-3-carboxamide], the values for the IC50 (in assay [1]; on C5aR) were below 50 nM and 50 to 500 nM, respectively.

As for `Cc1cccc(F)c1C(=O)N1C2CCC[C@@H]2C[C@H](C(=O)Nc2ccc3ncn(C)c3c2)[C@@H]1c1ccc(NC2CCCC2)cc1` (mixture of isomers) [Compound 74, cis-2-(4-(cyclopentylamino)phenyl)-1-(2-fluoro-6-methylbenzoyl)-N-(1-methyl-1H-benzo[d]imidazol-6-yl)octahydro-1H-cyclopenta[b]pyridine-3-carboxamide], the IC50 in assay [1] was 2000 to 5000 nM; on C5aR, above 10000 nM.

Turning to `Cc1ccc(NC(=O)[C@H]2C[C@H]3COCC3N(C(=O)c3c(C)cccc3F)[C@H]2c2ccc(NC3CCOCC3)cc2)cc1C(F)(F)F` (mixture of isomers) [Compound 135, cis-1-(2-fluoro-6-methylbenzoyl)-N-(4-methyl-3-(trifluoromethyl)phenyl)-2-(4-((tetrahydro-2H-pyran-4-yl)amino)phenyl)octahydrofuro[3,4-b]pyridine-3-carboxamide], the IC50 in assay [1] is 50 to 500 nM; on C5aR, 500 to 2000 nM.

For the compound `Cc1cccc(F)c1C(=O)N1C2COC[C@@H]2C[C@H](C(=O)Nc2ccc(N(C)C)cc2)[C@@H]1c1ccc(NC2CCOCC2)cc1` (mixture of isomers) [Compound 136, cis-N-(4-(dimethylamino)phenyl)-1-(2-fluoro-6-methylbenzoyl)-2-(4-((tetrahydro-2H-pyran-4-yl)amino)phenyl)octahydrofuro[3,4-b]pyridine-3-carboxamide], the concentration for half-maximal inhibition (IC50) in assay [1] lay within 2000 to 5000 nM; at C5aR, 2000 to 10000 nM.

On to `Cc1ncc(NC(=O)[C@H]2C[C@H]3CCC[C@H]3N(C(=O)c3c(C)cccc3F)[C@H]2c2ccc(NC3CCCC3)cc2)cn1` (racemic) [Compound 58, cis-2-(4-(cyclopentylamino)phenyl)-1-(2-fluoro-6-methylbenzoyl)-N-(2-methylpyrimidin-5-yl)octahydro-1H-cyclopenta[b]pyridine-3-carboxamide], for which the 50% inhibitory concentration (IC50) (in assay [1]; at C5aR) was 50 to 500 nM each time.

Regarding `Cc1cccc(F)c1C(=O)N1[C@@H]2CCC[C@@H]2C[C@H](C(=O)Nc2ccc(Cl)c(C(F)(F)F)c2)[C@@H]1c1ccc(NC2CCCC2)cc1` (racemic) [Compound 60, cis-N-(4-chloro-3-(trifluoromethyl)phenyl)-2-(4-(cyclopentylamino)phenyl)-1-(2-fluoro-6-methylbenzoyl)octahydro-1H-cyclopenta[b]pyridine-3-carboxamide], the IC50 in assay [1] lay in the range of 2000 to 5000 nM; at C5aR it was 50 to 500 nM.

`Cc1ccc(NC(=O)[C@H]2C[C@H]3CCC[C@H]3N(C(=O)c3c(C)cccc3F)[C@H]2c2ccc(NC3CCCC3)cc2)cn1` (racemic) [Compound 63, cis-2-(4-(cyclopentylamino)phenyl)-1-(2-fluoro-6-methylbenzoyl)-N-(6-methylpyridin-3-yl)octahydro-1H-cyclopenta[b]pyridine-3-carboxamide]: the IC50 was below 50 nM in assay [1] and 500 to 2000 nM on C5aR.

`Cc1cccc(F)c1C(=O)N1[C@@H]2CCC[C@@H]2C[C@H](C(=O)Nc2ccc(Cl)c(Cl)c2)[C@@H]1c1ccc(NC2CCCC2)cc1` (racemic) [Compound 64, cis-2-(4-(cyclopentylamino)phenyl)-N-(3,4-dichlorophenyl)-1-(2-fluoro-6-methylbenzoyl)octahydro-1H-cyclopenta[b]pyridine-3-carboxamide]: the IC50 was in the range of 500 to 2000 nM in assay [1] and 2000 to 10000 nM on C5aR.

For the compound `Cc1cccc(F)c1C(=O)N1[C@@H]2CCC[C@@H]2C[C@H](C(=O)Nc2ccc(NC=O)c(O)c2)[C@@H]1c1ccc(NC2CCCC2)cc1` (racemic) [Compound 68, cis-2-(4-(cyclopentylamino)phenyl)-1-(2-fluoro-6-methylbenzoyl)-N-(4-formamido-3-hydroxyphenyl)octahydro-1H-cyclopenta[b]pyridine-3-carboxamide], the half-inhibitory concentration (IC50) in assay [1] fell in the range of 2000 to 5000 nM; at C5aR, 500 to 2000 nM.

In the case of `Cc1cccc(F)c1C(=O)N1[C@@H]2CCC[C@@H]2C[C@H](C(=O)Nc2ccc3ncsc3c2)[C@@H]1c1ccc(NC2CCCC2)cc1` (racemic) [Compound 69, cis-N-(benzo[d]thiazol-6-yl)-2-(4-(cyclopentylamino)phenyl)-1-(2-fluoro-6-methylbenzoyl)octahydro-1H-cyclopenta[b]pyridine-3-carboxamide], the IC50 in assay [1] was 50 to 500 nM; on C5aR, 2000 to 10000 nM.

In the case of `Cc1cccc(F)c1C(=O)N1[C@@H]2CCC[C@@H]2C[C@H](C(=O)Nc2ccc3c(c2)OCCO3)[C@@H]1c1ccc(NC2CCCC2)cc1` (racemic) [Compound 71, cis-2-(4-(cyclopentylamino)phenyl)-N-(2,3-dihydrobenzo[b][1,4]dioxin-6-yl)-1-(2-fluoro-6-methylbenzoyl)octahydro-1H-cyclopenta[b]pyridine-3-carboxamide], the figures for the 50% inhibitory concentration (IC50) (in assay [1]; at C5aR) were below 50 nM and 2000 to 10000 nM, respectively.

On to `Cc1cccc(F)c1C(=O)N1C2CCC[C@@H]2C[C@H](C(=O)Nc2cccc(Cl)c2)[C@@H]1c1ccc(NC2CCCC2)cc1` (relative stereo) [Compound 55, cis-N-(3-chlorophenyl)-2-(4-(cyclopentylamino)phenyl)-1-(2-fluoro-6-methylbenzoyl)octahydro-1H-cyclopenta[b]pyridine-3-carboxamide], for which the IC50 in assay [1] fell in the range of 50 to 500 nM; on C5aR, 500 to 2000 nM.

Take `Cc1cccc(F)c1C(=O)N1[C@@H]2CCC[C@@H]2C[C@H](C(=O)Nc2ccc3c(cnn3Cc3cccnc3)c2)[C@@H]1c1ccc(NC2CCOCC2)cc1` [Compound 107, (2R,3S,4aR,7aR)-1-(2-fluoro-6-methylbenzoyl)-N-(1-(pyridin-3-ylmethyl)-1H-indazol-5-yl)-2-(4-((tetrahydro-2H-pyran-4-yl)amino)phenyl)octahydro-1H-cyclopenta[b]pyridine-3-carboxamide]: in assay [1], the half-maximal inhibitory concentration (IC50) lay within 2000 to 5000 nM.

In assay [1], `Cc1cccc(F)c1C(=O)N1[C@@H]2CCC[C@@H]2C[C@H](C(=O)Nc2ccc3c(cnn3CCF)c2)[C@@H]1c1ccc(NC2CCOCC2)cc1` [Compound 109, (2R,3S,4aR,7aR)-1-(2-fluoro-6-methylbenzoyl)-N-(1-(2-fluoroethyl)-1H-indazol-5-yl)-2-(4-((tetrahydro-2H-pyran-4-yl)amino)phenyl)octahydro-1H-cyclopenta[b]pyridine-3-carboxamide] had a 50% inhibitory concentration (IC50) of 500 to 2000 nM.

On to `Cc1cccc(F)c1C(=O)N1[C@@H]2COC[C@@H]2C[C@H](C(=O)Nc2ccc3cnn(C)c3c2)[C@@H]1c1ccc(NC2CCCC2)cc1` [Compound 122, (2R,3S,4aR,7aS)-2-(4-(cyclopentylamino)phenyl)-1-(2-fluoro-6-methylbenzoyl)-N-(1-methyl-1H-indazol-6-yl)octahydrofuro[3,4-b]pyridine-3-carboxamide], for which the IC50 in assay [1] fell in the range of 2000 to 5000 nM.

Turning to `Cc1cccc(F)c1C(=O)N1[C@@H]2COC[C@@H]2C[C@H](C(=O)Nc2cnc3cnn(C)c3c2)[C@@H]1c1ccc(NC2CCCC2)cc1` [Compound 123, (2R,3S,4aR,7aS)-2-(4-(cyclopentylamino)phenyl)-1-(2-fluoro-6-methylbenzoyl)-N-(1-methyl-1H-pyrazolo[4,3-b]pyridin-6-yl)octahydrofuro[3,4-b]pyridine-3-carboxamide], the half-inhibitory concentration (IC50) in assay [1] fell in the range of 50 to 500 nM.

The compound `Cc1cccc(F)c1C(=O)N1[C@@H]2COC[C@@H]2C[C@H](C(=O)Nc2ccc3c(cnn3C)c2)[C@@H]1c1ccc(CN2CCOCC2(C)C)cc1` [Compound 142, (2R,3S,4aR,7aS)-2-(4-((3,3-dimethylmorpholino)methyl)phenyl)-1-(2-fluoro-6-methylbenzoyl)-N-(1-methyl-1H-indazol-5-yl)octahydrofuro[3,4-b]pyridine-3-carboxamide] had an IC50 in assay [1] of 2000 to 5000 nM.

As for `Cc1ccc(NC(=O)[C@H]2CCCN(C(=O)c3c(C)cccc3F)[C@H]2C2CCC3(CCOC3)CC2)cc1C(F)(F)F` (stereo partly drawn) [Compound 170, (2S,3S)-1-(2-fluoro-6-methylbenzoyl)-N-(4-methyl-3-(trifluoromethyl)phenyl)-2-(2-oxaspiro[4.5]decan-8-yl)piperidine-3-carboxamide], in assay [1], the IC50 lay within 500 to 2000 nM.
